Patent US10174013B2, “Benzimidazole derivatives as kinase inhibitors” (SELVITA S.A., priority 2012, dated 2019)
Where a name gives a salt, the structure may show the parent alone. Read-outs that look alike come from different tables or passages of the source.

Key:
Pim-3 = Pim-3 (Homo sapiens (Human), UniProt Q86V86); assay: ADP-Glo Kinase Assay, Pim-3; format: biochemical; conditions: 1 μM compound; for inhibition at 1 µM: read-out: Pim-3 % INH (1 μM)
Procedure, shortened: (§1)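 Compounds were diluted in assay buffer to 1000 nM and incubated with kinase, substrate and ATP at apparent Km. Remaining ATP was depleted, ADP converted to ATP and detected by luciferase; percent inhibition came from normalized luminescence.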

CDK2/E = CDK2/E (Homo sapiens (Human), UniProt P24941); assay: ADP-Glo Kinase Assay, CDK2/E; format: biochemical; conditions: 1 μM compound; for inhibition at 1 µM: read-out: CDK2/E % INH (1 μM)
Procedure, shortened: as §1

DYRK1 = DYRK1 (Homo sapiens (Human), UniProt Q13627); assay: ADP-Glo Kinase Assay, DYRK1; format: biochemical; conditions: 1 μM compound; for inhibition at 1 µM: read-out: DYRK1A % INH (1 μM)
Procedure, shortened: as §1

HEL92 cells = assay: Growth inhibition, MTS assay, HEL92; format: cell-based, Human; conditions: MTS cell viability, read-out: HEL92 ED50
HepG2 cells = assay: Growth inhibition, MTS assay, HepG2; format: cell-based, Human; conditions: MTS cell viability, read-out: HepG2 ED50
MV4-11 xenograft = MV4-11 xenograft in immunocompromised mice; format: in vivo
Procedure, shortened: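 MV4-11 leukemic cells engrafted in NOD/scid or SCID/beige mice; oral dosing started at tumor volume approx. 50-200 mm^3, daily QD or BID for 2-3 weeks. Efficacy read as tumor growth inhibition (TGI), tolerability as body weight change (ΔBW).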

[1] = MV4-11 xenograft, oral, 150 mg/Kg QD
[2] = MV4-11 xenograft, oral, doses as in Table 3
[3] = MV4-11 xenograft, oral, 100 mg/Kg QD
[4] = MV4-11 xenograft, oral, 150 mg/Kg BID
[5] = MV4-11 xenograft, oral, 75 mg/Kg BID

inhibition at 1 µM (Pim-3) [%] | inhibition at 1 µM (CDK2/E) [%] | inhibition at 1 µM (DYRK1) [%] | IC50 (HepG2 cells; Homo sapiens, HepG2, 72 h) [µM] | Structure (SMILES) | IC50 (HEL92 cells; Homo sapiens, 72 h) [µM] | TGI (tumor growth inhibition) (MV4-11 xenograft; [1]) [%] | ΔBW (body weight change) (MV4-11 xenograft; [1]) [%] | TGI (tumor growth inhibition) (MV4-11 xenograft; [2]) | other results
95 | 22 | 79 | 1.5 | CC(C)n1c(N2CC[C@@H](N)C2)nc2c(C#N)c(Br)c(Br)cc21 [Example 1BI] | 5.1 | 87 | 3.8 | above 87% | –
– | – | – | – | CC(C)n1c(N2CCNC[C@H]2C)nc2c([N+](=O)[O-])c(Br)c(Br)cc21 [Example 1AX] | – | – | – | exceeding 97% | Pim-3 % INH (1 μM) (Pim-3): 95%; DYRK1A % INH (1 μM) (DYRK1): >95%; IC50 (HEL92 cells; 72 hours): 0.1 µM; IC50 (HepG2 cells; 72 hours): 0.1 µM; TGI (tumor growth inhibition) (MV4-11 xenograft; [3]): 97%; ΔBW (body weight change) (MV4-11 xenograft; [3]): −2.2%
90 | 36 | > 95 | 0.6 | CC(C)n1c(C2CCNCC2)nc2c([N+](=O)[O-])c(Br)c(Br)cc21 [Example 26A, 5,6-dibromo-4-nitro-2-(piperidin-4-yl)-1-(propan-2-yl)-1H-1,3-benzodiazole] | 0.9 | – | – | – | ΔBW (body weight change) (MV4-11 xenograft; MV-4-11 xenograft, 26A 25 mg/Kg BID): −6%; TGI (tumor growth inhibition) (MV4-11 xenograft; MV-4-11 xenograft, 26A 25 mg/Kg BID, 15 days): 77%; ΔBW (body weight change) (MV4-11 xenograft; MV-4-11 xenograft, 26A 50 mg/Kg BID): −3%; TGI (tumor growth inhibition) (MV4-11 xenograft; MV-4-11 xenograft, 26A 50 mg/Kg BID, 15 days): 87%
– | – | – | – | CCCn1c(N2CCNCC2)nc2c([N+](=O)[O-])c(Br)c(Br)cc21 [Example 1M] | – | – | – | more than 70% | Pim-3 % INH (1 μM) (Pim-3): 73%; CDK2/E % INH (1 μM) (CDK2/E): <5%; DYRK1A % INH (1 μM) (DYRK1): >95%; IC50 (HEL92 cells; 72 hours): 2.2 µM; IC50 (HepG2 cells; 72 hours): 1.8 µM; TGI (tumor growth inhibition) (MV4-11 xenograft; [4]): 76%; ΔBW (body weight change) (MV4-11 xenograft; [4]): 9.2%
> 95 | 21 | > 95 | 0.7 | Cl.O=[N+]([O-])c1c(Br)c(Br)cc2c1nc(N1CCNCC1)n2C1CCCC1 [Example 2D, 5,6-dibromo-1-cyclopentyl-4-nitro-2-(piperazin-1-yl)-1H-1,3-benzodiazole hydrochloride] | 4.7 | 88 | −3.5 | above 87% | –

Structure (SMILES) | inhibition at 1 µM (Pim-3) [%] | inhibition at 1 µM (CDK2/E) [%] | inhibition at 1 µM (DYRK1) [%] | IC50 (HepG2 cells; Homo sapiens, HepG2, 72 h) [µM] | IC50 (HEL92 cells; Homo sapiens, 72 h) [µM] | TGI (tumor growth inhibition) (MV4-11 xenograft; [1]) [%] | ΔBW (body weight change) (MV4-11 xenograft; [1]) [%] | TGI (tumor growth inhibition) (MV4-11 xenograft; [2]) | other results
CC(C)n1c(N2CCNCC2)nc2c([N+](=O)[O-])c(Br)c(Br)cc21 [Example 2A, 5,6-dibromo-4-nitro-2-(piperazin-1-yl)-1-(propan-2-yl)-1H-1,3-benzodiazole hydrochloride] | 89 | 44 | > 95 | 0.6 | 0.7 | 99 | −4.4 | exceeding 97% | –
CCn1c(N2CCNCC2)nc2c([N+](=O)[O-])c(Br)c(Br)cc21 [Example 1A, 5,6-dibromo-1-ethyl-4-nitro-2-(piperazin-1-yl)-1H-1,3-benzodiazole hydrochloride] | 65 | < 5 | 66 | – | – | – | – | more than 70% | IC50 (HEL92 cells; Homo sapiens, 72 hours): 2.6 µM; IC50 (HepG2 cells; Homo sapiens, HepG2, 72 hours): 1.3 µM; TGI (tumor growth inhibition) (MV4-11 xenograft; [5]): 73%; ΔBW (body weight change) (MV4-11 xenograft; [5]): 5.4%
